System: participants with T1D
Experiment: Randomized crossover clinical trial (NCT04201496): CGM glycemic outcomes with 5 mg daily empagliflozin adjunctive to AID (Control-IQ, CIQ) or PLGS (Basal-IQ, BIQ)
Format: in vivo, human
Conditions: for Difference (95% CI): daytime glucose % Time in range of 70 to 180 mg/dL: adjusted for pre-randomization HbA1c
Method: FIG. 2 presents a study analysis relative to baseline, control IQ (CIQ) (e.g., AID), and basal IQ (BIQ) (e.g., PLGS) implementation, according to investigation that is demonstrable of one or more embodiments herein. Therein, an experimental arm (G1, G2) providing an initial daily dose of 5 mg empagliflozin (EMPA) is depicted against a control arm (G3, G4) without such dosing (NOEMPA). Relative characteristics of the analysis are provided below.
Study Design: A single-center, randomized, controlled, unblinded, crossover clinical trial (NCT04201496) compared four parallel groups, two groups in the experimental arm (EMPA) with 5 mg daily empagliflozin as adjunctive therapy to PLGS or AID, and two groups in the control arm (NOEMPA) with no drug and with a PLGS system (Basal-IQ, Tandem Diabetes Care) or AID system (Control-IQ, Tandem Diabetes Care). The groups within each arm differed from one another in the order of the randomly assigned crossover technological intervention, relative to PLGS being followed by AID or AID being followed by PLGS, respectively (FIG. 4). The study protocol was approved by the University of Virginia Institutional Review Board (IRB). An investigational device exemption (IDE), including an investigational new drug (IND) application for empagliflozin, was approved by the FDA. Safety aspects were overseen by an external data and safety monitoring board (DSMB). Participants: Major inclusion criteria were T1D treated with insulin for at least one year, use of continuous subcutaneous insulin infusion therapy for at least six months, age 18-65 yrs., no use of glucose lowering agents other than insulin, and Hb1Ac<9% (75 mmol/mol). Randomization: A (1:1:1:1) randomization assigned participants to either Group 1, AID-EMPA (4 weeks) followed by PLGS-EMPA (2 weeks), Group 2, PLGS-EMPA (2 weeks) followed by AID-EMPA (4 weeks), Group 3, AID-NOEMPA (4 weeks) followed by PLGS-NOEMPA (2 weeks), and Group 4, PLGS-NOEMPA (2 weeks) followed by AID-NOEMPA (4 weeks). Procedures: After confirmation of eligibility, participants underwent study equipment and medication training (experimental arm), or only study equipment training (control arm). Study equipment consisted of Dexcom G6® CGM (Dexcom Inc., San Diego, CA), Contour® Next blood glucose (Ascensia Diabetes Care, Basel, Switzerland) and Precision Xtra® blood ketone meters (Abbott, Alameda, CA) with their respective test strips; infusion sets, and the use of the t:slim X2™ insulin pump with Basal-IQ or Control-IQ technologies (Tandem Diabetes Care, San Diego, CA), according to randomization. […] Participants in the experimental arm were asked to record two days of baseline ketone values before initiating the use of the study drug. Thereafter, participants were directed to use the study CGM with EMPA for 1-2 weeks. A tolerance to the medication was assessed prior to the starting of the next study phase, including adherence to the protocol, ketone testing 2-4 times per day with monitored values not greater than 0.6 mmol/L on at least two successive occasions (the first testing upon waking in a fasted state), no adverse events relating to perineal infection or symptomatic postural hypotension, and no evidence of significant hypoglycemia <54 mg/dL, or any other listed adverse effects of the medication. Participants in the control arm were directed to use the study CGM for 1-2 weeks. Sample Size: The total sample size was projected to be 40 participants, assuming 1) 1:1:1:1 randomization; 2) 90% power and type 1 error a=0.01, further reinforcing the feasibility of hierarchical analyses. The projected recruitment sample was n=50, to accommodate up to 20% attrition rate without sacrificing statistical power. Analytical methods: For the primary analysis, TIR during the day in the 4-week AID period was compared between the two EMPA groups versus the two NOEMPA groups using a linear mixed-effects regression model while adjusting for pre-randomization HbAlc and age. […]

[1] = EMPA minus NOEMPA on same insulin system, adjusted for HbA1c
[2] = daytime (7:00-23:00), head prints CIQ-EMPA vs. BIQ-NOEMPA
[3] = daytime (7:00-23:00), CIQ-EMPA vs. BIQ-NOEMPA, BIQ-EMPA vs. CIQ-NOEMPA
[4] = daytime (7:00-23:00), CIQ-EMPA vs. CIQ-NOEMPA, BIQ-EMPA vs. BIQ-NOEMPA
[5] = daytime (7:00-23:00), n = 16, mean ± SD
[6] = daytime (7:00-23:00), n = 16, median (IQR)
[7] = overall, head prints CIQ-EMPA vs. BIQ-NOEMPA

OC[C@H]1O[C@@H](c2ccc(Cl)c(Cc3ccc(O[C@H]4CCOC4)cc3)c2)[C@H](O)[C@@H](O)[C@@H]1O [CIQ-EMPA, empagliflozin]
24/7 HBGI - median (IQR) (24/7, n = 17): 2.7(2-4.4)
24/7 LBGI - median (IQR) (24/7, n = 17): 0.5(0.4-0.6)
24/7 glucose level <70 mg/dL (<3.9 mmol/L) - median % time (IQR) (24/7, n = 17): 1.1(0.5-1.5) %
24/7 glucose level <70 mg/dL (<3.9 mmol/L) - median % time (IQR) (24/7, n = 17, listed as AID-EMPA): 1.1(0.5-1.5) %
24/7 Mean glucose level - (24/7, n = 17, mean ± SD): 137 ± 19 mg/dL
24/7 Mean glucose level - (24/7, n = 17, mean ± SD, listed as AID-EMPA): 137 mg/dL
daytime TIR mean adjusted difference, amounting to hours per day (AID-EMPA vs AID-NOEMPA, daytime 7:00 to 23:00 h): 1.6 hours per day
Difference (95% CI): 24/7 HBGI [1]: −2.5(−5.3 to 0.2)
Difference (95% CI): 24/7 LBGI [1]: 0.06(−0.4 to 0.5)
Difference (95% CI): 24/7 Mean glucose level [1]: −17.3(−35.4 to 0.8) mg/dL
Difference (95% CI): 24/7 glucose level <70 mg/dL % time [1]: −1.1(−3.2 to 0.9) percentage points
Difference (95% CI): Daytime CGM CV [1]: −3.3(−6.1 to −0.5) %
Difference (95% CI): Daytime CGM SD [1]: −9.3(−17.8 to −0.93) mg/dL
Difference (95% CI): 24/7 glucose level <70 mg/dL % time (EMPA minus NOEMPA on same insulin system, adjusted for HbA1c, listed as AID-EMPA): −1.1 percentage points
Difference (95% CI): daytime glucose % Time in range of 70 to 180 mg/dL (EMPA minus NOEMPA on same insulin system): 9.9(0.6 to 19.1) percentage points
Difference (95% CI): daytime glucose % Time in range of 70 to 180 mg/dL (EMPA minus NOEMPA on same insulin system, listed as AID-EMPA): +9.9 percentage points
Primary: daytime glucose % Time in range of 70 to 180 mg/dL (3.9-10.0 mmol/L) (daytime 7:00 to 23:00 h, n = 17, mean ± SD): 81 ± 10%
Primary: daytime glucose % Time in range of 70 to 180 mg/dL (3.9-10.0 mmol/L) (daytime 7:00 to 23:00 h, n = 17, mean ± SD, listed as AID-EMPA): 81+10%
Difference (95% CI): % CGM time 70-140 mg/dL (<3.9-7.8 mmol/L) [2]: −1.4 percentage points
Difference (95% CI): % CGM time <60 mg/dL (<3.3 mmol/L) [2]: −0.5 percentage points
Difference (95% CI): % CGM time >180 mg/dL (>10.0 mmol/L) [2]: −0.8 percentage points
Difference (95% CI): % CGM time >250 mg/dL (>13.9 mmol/L) [2]: −1.6 percentage points
Difference (95% CI): % CGM time >300 mg/dL (>16.7 mmol/L) [2]: −0.9 percentage points
Difference (95% CI): CGM HBGI [2]: −6.3
Difference (95% CI): CGM LBGI [2]: −0.3
Difference (95% CI): Mean CGM glucose [2]: 0.2 mg/dL
Difference (95% CI): % CGM time <70 mg/dL (<3.9 mmol/L) (daytime (7:00-23:00), head prints CIQ-EMPA vs. BIQ-NOEMPA, listed as AID-EMPA): −1 percentage points
Difference (95% CI): % CGM time 70-140 mg/dL (<3.9-7.8 mmol/L) [3]: 16.2 percentage points
Difference (95% CI): % CGM time <60 mg/dL (<3.3 mmol/L) [3]: −0.6 percentage points
Difference (95% CI): % CGM time <70 mg/dL (<3.9 mmol/L) [3]: −0.7 percentage points
Difference (95% CI): % CGM time >180 mg/dL (>10.0 mmol/L) [3]: −17.6 percentage points
Difference (95% CI): % CGM time >250 mg/dL (>13.9 mmol/L) [3]: −9.2 percentage points
Difference (95% CI): % CGM time >300 mg/dL (>16.7 mmol/L) [3]: −3.6 percentage points
Difference (95% CI): CGM HBGI [3]: −4.4
Difference (95% CI): CGM LBGI [3]: 0
Difference (95% CI): CGM SD [3]: -15.5 mg/dL
Difference (95% CI): Mean CGM glucose [3]: -23.6 mg/dL
Difference (95% CI): % CGM time <50 mg/dL (<2.8 mmol/L) [4]: −0.2 percentage points
Difference (95% CI): % CGM time <60 mg/dL (<3.3 mmol/L) [4]: −0.7 percentage points
Difference (95% CI): % CGM time >180 mg/dL (>10.0 mmol/L) [4]: −10.3 percentage points
Difference (95% CI): % CGM time >250 mg/dL (>13.9 mmol/L) [4]: −3.8 percentage points
Difference (95% CI): % CGM time >300 mg/dL (>16.7 mmol/L) [4]: −1.3 percentage points
Difference (95% CI): CGM CV (%) [4]: −3.3%
Difference (95% CI): CGM HBGI [4]: −2.2
Difference (95% CI): CGM LBGI [4]: 0
Difference (95% CI): CGM SD [4]: -9.3 mg/dL
Difference (95% CI): Mean CGM glucose [4]: -14.6 mg/dL
% CGM time 70-140 mg/dL (3.9-7.8 mmol/L) [5]: 56.7 ± 13.4%
% CGM time 70-180 mg/dL (3.9-10.0 mmol/L) [5]: 80.6 ± 10.5%
CGM CV (%) [5]: 30.4 ± 3.5%
CGM SD [5]: 42.6 ± 9.7 mg/dL
Mean CGM glucose [5]: 139 ± 19 mg/dL
% CGM time <50 mg/dL (<2.8 mmol/L) [6]: 0(0-0.1) %
% CGM time <60 mg/dL (<3.3 mmol/L) [6]: 0.4(0-0.5) %
% CGM time <70 mg/dL (<3.9 mmol/L) [6]: 1.2(0.6-1.7) %
% CGM time >180 mg/dL (>10.0 mmol/L) [6]: 15.8(6.2-26) %
% CGM time >250 mg/dL (>13.9 mmol/L) [6]: 1.2(0.4-3.7) %
% CGM time >300 mg/dL (>16.7 mmol/L) [6]: 0(0-0.6) %
CGM HBGI [6]: 3.4(1.9-5.5)
CGM LBGI [6]: 0.5(0.4-0.6)
Daytime CGM CV - % (daytime, n = 17, mean ± SD): 30.4 ± 3.5%
Daytime CGM SD - (daytime, n = 17, mean ± SD): 42.6 ± 9.8 mg/dL
Difference: CGM HBGI [7]: −1.1
Difference: CGM LBGI [7]: −0.3
Difference: % CGM time <70 mg/dL (<3.9 mmol/L) (overall, head prints CIQ-EMPA vs. BIQ-NOEMPA, listed as AID-EMPA): −1.2 percentage points

Source: patent US20250345512A1, “COMBINATION SODIUM-GLUCOSE COTRANSPORTER INHIBITOR (SGLTI) INSULIN THERAPY FOR GLYCEMIC CONTROL IN TYPE 1 DIABETES” (University of Virginia Patent Foundation, priority 2022, published 2025)
